According to PubChem BioAssay AID330 (DTP/NCI, 2004):
Values joined by “and” are separate entries in the source; they are usually repeats but may differ in a detail not shown here. Equal values may be shown once. Toxic doses and inconclusive results are not listed.

Test system: P388 leukemia ip, CD2F1 mice, survival T/C
Assay: NCI In Vivo Anticancer Drug Screen. Data for tumor model P388 Leukemia (intraperitoneal) in CD2F1 (CDF1) mice
Conditions: endpoint: median survival time, higher = longer survival
Experimental: The antitumor activity of compounds was measured in mice bearing transplantable tumors. Survival or tumor size were measured and the results are expressed as the measurement made in the treated group (T) divided by the measurement made in the vehicle treated control group (C). The tumor model used in this assay is P388 Leukemia (intraperitoneal) in CD2F1 (CDF1) mice

[1] = dose: 50.0 mg/kg/injection, schedule: Q01DX005 (ip), vehicle: saline with Tween-80
[2] = dose: 100.0 mg/kg/injection, schedule: Q01DX005 (ip), vehicle: saline with Tween-80
[3] = dose: 200.0 mg/kg/injection, schedule: Q01DX005 (ip), vehicle: saline with Tween-80
[4] = dose: 50.0 mg/kg/injection, schedule: Q01DX009 (ip), vehicle: saline with Tween-80
[5] = dose: 100.0 mg/kg/injection, schedule: Q01DX009 (ip), vehicle: saline with Tween-80
[6] = dose: 200.0 mg/kg/injection, schedule: Q01DX009 (ip), vehicle: saline with Tween-80
[7] = dose: 400.0 mg/kg/injection, schedule: Q01DX009 (ip), vehicle: saline with Tween-80
[8] = dose: 100.0 mg/kg/injection, schedule: Q01DX001 (ip), vehicle: saline with Tween-80
[9] = dose: 200.0 mg/kg/injection, schedule: Q01DX001 (ip), vehicle: saline with Tween-80
[10] = dose: 50.0 mg/kg/injection, schedule: Q01DX009 (ip), vehicle: Klucel (hydroxypropylcellulose) (HPC)
[11] = dose: 100.0 mg/kg/injection, schedule: Q01DX009 (ip), vehicle: Klucel (hydroxypropylcellulose) (HPC)
[12] = dose: 200.0 mg/kg/injection, schedule: Q01DX009 (ip), vehicle: Klucel (hydroxypropylcellulose) (HPC)
[13] = dose: 50.0 mg/kg/injection, schedule: Q01DX005 (ip), vehicle: Klucel (hydroxypropylcellulose) (HPC)
[14] = dose: 100.0 mg/kg/injection, schedule: Q01DX005 (ip), vehicle: Klucel (hydroxypropylcellulose) (HPC)
[15] = dose: 200.0 mg/kg/injection, schedule: Q01DX005 (ip), vehicle: Klucel (hydroxypropylcellulose) (HPC)

## Cc1noc2nccnc12
dose: 25.0 mg/kg/injection, schedule: Q04DX003 (ip), vehicle: saline with Tween-80
  T/C: 100 % of control
dose: 50.0 mg/kg/injection, schedule: Q04DX003 (ip), vehicle: saline with Tween-80
  T/C: 91 % of control
dose: 100.0 mg/kg/injection, schedule: Q04DX003 (ip), vehicle: saline with Tween-80
  T/C: 91 % of control

## [N-]=[N+]=NC12CC3CC(CC(C3)C1)C2
[1]
  T/C: 100 % of control
[2]
  T/C: 101 % of control
[3]
  T/C: 106 % of control

## O=C(OCC1OC(n2cnc3c(=S)nc[nH]c32)C(OC(=O)c2ccc(Cl)cc2)C1OC(=O)c1ccc(Cl)cc1)c1ccc(Cl)cc1 (stereo not given)
[4]
  T/C: 90 % of control
[5]
  T/C: 90 % of control
[6]
  T/C: 90 % of control
[7]
  T/C: 90 % of control

## COc1ccc(C(CN2CCOCC2)C(C)=O)cc1OC (stereo not given)
dose: 60.0 mg/kg/injection, schedule: Q01DX005 (ip), vehicle: saline
  T/C: 101 % of control
dose: 120.0 mg/kg/injection, schedule: Q01DX005 (ip), vehicle: saline
  T/C: 101 % of control
dose: 240.0 mg/kg/injection, schedule: Q01DX005 (ip), vehicle: saline
  T/C: 101 % of control

## COc1ccc(C(=O)O)cc1
[5]
  T/C: 101 % of control
[6]
  T/C: 96 % of control
[7]
  T/C: 109 % of control

## Cn1cnc([N+](=O)[O-])c1Sc1ccc(Cl)cc1
dose: 0.79 mg/kg/injection, schedule: Q01DX009 (ip), vehicle: saline with Tween-80
  T/C: 104 % of control
dose: 1.56 mg/kg/injection, schedule: Q01DX009 (ip), vehicle: saline with Tween-80
  T/C: 104 % of control
dose: 3.12 mg/kg/injection, schedule: Q01DX009 (ip), vehicle: saline with Tween-80
  T/C: 97 % of control

## COc1cc(C)c2nc3c(C)c(Cl)ccc3c(Cl)c2c1
dose: 3.0 mg/kg/injection, schedule: Q01DX005 (ip), vehicle: Klucel + Tween-80
  T/C: 98 % of control
dose: 6.0 mg/kg/injection, schedule: Q01DX005 (ip), vehicle: Klucel + Tween-80
  T/C: 100 % of control
dose: 12.0 mg/kg/injection, schedule: Q01DX005 (ip), vehicle: Klucel + Tween-80
  T/C: 97 % of control
dose: 50.0 mg/kg/injection, schedule: Q01DX005 (ip), vehicle: Klucel + Tween-80
  T/C: 88 % of control

## Cc1cn(C2CC(O)C(CI)O2)c(=O)[nH]c1=O (stereo not given)
[1]
  T/C: 98 % of control
[2]
  T/C: 104 % of control
[3]
  T/C: 98 % of control

## COc1cc(C)c(/C(=N/O)n2nnc(-c3ccc(C)cc3)n2)c(C)c1
[8]
  T/C: 92 % of control
[9]
  T/C: 91 % of control

## BrC1=CC(Br)=C2N=C(N3CCCC3)N=C3N=C(C(Br)(Br)Br)N=C1N32
dose: 7.5 mg/kg/injection, schedule: Q01DX005 (ip), vehicle: Klucel (hydroxypropylcellulose) (HPC)
  T/C: 94 % of control
dose: 15.0 mg/kg/injection, schedule: Q01DX005 (ip), vehicle: Klucel (hydroxypropylcellulose) (HPC)
  T/C: 92 % of control
dose: 30.0 mg/kg/injection, schedule: Q01DX005 (ip), vehicle: Klucel (hydroxypropylcellulose) (HPC)
  T/C: 86 % of control and 90 % of control
dose: 60.0 mg/kg/injection, schedule: Q01DX005 (ip), vehicle: Klucel (hydroxypropylcellulose) (HPC)
  T/C: 86 % of control
dose: 120.0 mg/kg/injection, schedule: Q01DX005 (ip), vehicle: Klucel (hydroxypropylcellulose) (HPC)
  T/C: 88 % of control
dose: 240.0 mg/kg/injection, schedule: Q01DX005 (ip), vehicle: Klucel (hydroxypropylcellulose) (HPC)
  T/C: 94 % of control

## CCOC(=O)c1c(-c2ccccc2)oc2ccc(NS(=O)(=O)c3ccccc3)cc12
[8]
  T/C: 95 % of control
[9]
  T/C: 104 % of control
dose: 400.0 mg/kg/injection, schedule: Q01DX001 (ip), vehicle: saline with Tween-80
  T/C: 95 % of control

## O=C(/C=C/c1ccccc1)c1ccccc1O
[4]
  T/C: 96 % of control
[5]
  T/C: 104 % of control
[6]
  T/C: 101 % of control

## CN1C(=O)NC(C)(c2cccc(N(CCCl)CCCl)c2)C1=O (stereo not given)
[10]
  T/C: 158 % of control
[11]
  T/C: 177 % of control
[12]
  T/C: 160 % of control and 205 % of control

## CC12CCC(C/C1=N\[N+](=O)[O-])C2(C)C (stereo not given)
dose: 12.5 mg/kg/injection, schedule: Q01DX009 (ip), vehicle: suspension in saline
  T/C: 96 % of control
dose: 25.0 mg/kg/injection, schedule: Q01DX009 (ip), vehicle: suspension in saline
  T/C: 97 % of control
dose: 50.0 mg/kg/injection, schedule: Q01DX009 (ip), vehicle: saline
  T/C: 100 % of control
dose: 50.0 mg/kg/injection, schedule: Q01DX009 (ip), vehicle: suspension in saline
  T/C: 97 % of control
dose: 200.0 mg/kg/injection, schedule: Q01DX009 (ip), vehicle: saline
  T/C: 90 % of control

## CC(C)(C)OC(=O)NC(CCC(=O)OCc1ccccc1)C(=O)ON1C(=O)CCC1=O (stereo not given)
[1]
  T/C: 104 % of control
[2]
  T/C: 114 % of control
[3]
  T/C: 102 % of control

## O/N=C/c1c(-c2ccccc2)nc2n1CCS2
dose: 100.0 mg/kg/injection, schedule: Q04DX002 (ip), vehicle: Klucel (hydroxypropylcellulose) (HPC)
  T/C: 101 % of control
dose: 200.0 mg/kg/injection, schedule: Q04DX002 (ip), vehicle: Klucel (hydroxypropylcellulose) (HPC)
  T/C: 99 % of control
dose: 400.0 mg/kg/injection, schedule: Q04DX002 (ip), vehicle: Klucel (hydroxypropylcellulose) (HPC)
  T/C: 98 % of control

## COc1ccc(NC(=O)c2sc(SC)nc2N)cc1
[10]
  T/C: 100 % of control
[11]
  T/C: 98 % of control
[12]
  T/C: 97 % of control

## NC(=O)[C@@H]1CC2CCC1C2 (stereo not given in full)
[13]
  T/C: 88 % of control
[14]
  T/C: 93 % of control
[15]
  T/C: 87 % of control

## [Cl-].[Cl-].[Co+3].[NH-]CC[NH-].[NH-]CC[NH-].[O-][Cl+3]([O-])([O-])O
dose: 25.0 mg/kg/injection, schedule: Q01DX009 (ip), vehicle: saline with Tween-80
  T/C: 102 % of control
[4]
  T/C: 105 % of control and 117 % of control
[5]
  T/C: 111 % of control and 123 % of control

## CCC(=O)[O-].CCC(=O)[O-].CCC(=O)[O-].CCC(=O)[O-].O=S(=O)(O)O.[Re].[Re]
dose: 72.0 mg/kg/injection, schedule: Q01DX009 (ip), vehicle: saline
  T/C: 107 % of control
dose: 103.0 mg/kg/injection, schedule: Q01DX009 (ip), vehicle: saline
  T/C: 100 % of control
dose: 147.0 mg/kg/injection, schedule: Q01DX009 (ip), vehicle: saline
  T/C: 102 % of control
dose: 171.5 mg/kg/injection, schedule: Q01DX009 (ip), vehicle: suspension in saline
  T/C: 109 % of control
dose: 210.0 mg/kg/injection, schedule: Q01DX009 (ip), vehicle: saline
  T/C: 108 % of control
dose: 245.0 mg/kg/injection, schedule: Q01DX009 (ip), vehicle: suspension in saline
  T/C: 120 % of control
dose: 300.0 mg/kg/injection, schedule: Q01DX009 (ip), vehicle: saline
  T/C: 91 % of control

## CCN(CC)CCNC(=O)C(O)C1CCCCC1 (stereo not given)
dose: 60.0 mg/kg/injection, schedule: Q01DX005 (ip), vehicle: saline with Tween-80
  T/C: 99 % of control
dose: 120.0 mg/kg/injection, schedule: Q01DX005 (ip), vehicle: saline with Tween-80
  T/C: 99 % of control

## COc1cc(C2SCC(=O)N2c2nnc(C)s2)cc(OC)c1OC (stereo not given)
[13]
  T/C: 97 % of control
[14]
  T/C: 89 % of control
[15]
  T/C: 89 % of control

## COc1ccc(-c2cc(-c3ccccc3)nc(-c3cccc([N+](=O)[O-])c3)c2)cc1
[10]
  T/C: 100 % of control
[11]
  T/C: 124 % of control
[12]
  T/C: 97 % of control

## O=C1C2C3C=CC(O3)C2C(=O)N1/N=C\C(O)C(O)C(O)C(O)CO (stereo not given)
[1]
  T/C: 97 % of control
[2]
  T/C: 98 % of control
[3]
  T/C: 95 % of control

## C=C1C(=O)O[C@@H]2C[C@@H](C)[C@@H]3CC[C@H](O)[C@@]3(COC(C)=O)C[C@@H]12
dose: 8.13 mg/kg/injection, schedule: Q01DX005 (ip), vehicle: Klucel (hydroxypropylcellulose) (HPC)
  T/C: 97 % of control
dose: 16.25 mg/kg/injection, schedule: Q01DX005 (ip), vehicle: Klucel (hydroxypropylcellulose) (HPC)
  T/C: 99 % of control
dose: 32.5 mg/kg/injection, schedule: Q01DX005 (ip), vehicle: Klucel (hydroxypropylcellulose) (HPC)
  T/C: 100 % of control and 98 % of control
dose: 65.0 mg/kg/injection, schedule: Q01DX005 (ip), vehicle: Klucel (hydroxypropylcellulose) (HPC)
  T/C: 104 % of control and 109 % of control
dose: 130.0 mg/kg/injection, schedule: Q01DX005 (ip), vehicle: Klucel (hydroxypropylcellulose) (HPC)
  T/C: 113 % of control
dose: 260.0 mg/kg/injection, schedule: Q01DX005 (ip), vehicle: Klucel (hydroxypropylcellulose) (HPC)
  T/C: 122 % of control

## NC(=O)C1CC2(c3ccccn3)c3ccccc3C1c1ccccc12 (stereo not given)
[13]
  T/C: 96 % of control
[14]
  T/C: 90 % of control
[15]
  T/C: 88 % of control
